Here are results for 20 molecules from PubChem BioAssay (NCI).

Among the test systems are 786-0 renal; BT-549 breast; CAKI-1 renal; HL-60(TB) leukemia; KM12 colon; NCI-H522 lung; NCI/ADR-RES ovarian; OVCAR-5 ovarian; SK-MEL-5 melanoma; UACC-257 melanoma.
What all share (assay): growth of human tumour cells (NCI), 48 h

Each structure is given as a SMILES string.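 Briefly, cells in 96-well plates were exposed to five compound concentrations for 48 h, and endpoints were estimated by linear interpolation. TGI denotes the concentration required for complete inhibition of growth.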 *1 amine or outer side, *2 acyl side, *3 side chain or, on linkers, in order; H or OH if unused. Where a SMILES comes first, the peptide text is derived from it. Bridges are numbered along the chain shown (N, C = ends). Roman numbers before positions name the chains, in order. [ ]: non-standard residue; d: D form. Actinocin(9to1) = Cc1c2oc3c(C)ccc(C(=O)[*:1])c3nc-2c(C(=O)[*:2])c(N)c1=O; NMeV = CN[CH](C(=O)O)C(C)C; Sar = CNCC(=O)O Some results are limits rather than exact numbers.

For the molecule `[N-]=[N+]=NCc1cccc(Nc2cc(=O)[nH]c(=O)[nH]2)c1`, the TGI in the assay on 786-0 renal, with BT-549 breast, in the assay on CAKI-1 renal, in the assay on HL-60(TB) leukemia, in the assay with KM12 colon and with NCI-H522 lung was greater than 100 µM throughout. Moreover, the TGI in the assay with NCI/ADR-RES ovarian, with OVCAR-5 ovarian, with SK-MEL-5 melanoma and with UACC-257 melanoma was greater than 100 µM throughout.

Take `O=[N+]([O-])c1ccc(N=Nc2c(O)c(S(=O)(=O)O)cc3cc(S(=O)(=O)O)ccc23)cc1`: the TGI in the assay on 786-0 renal, in the assay with BT-549 breast, in the assay on CAKI-1 renal, in the assay on HL-60(TB) leukemia, with NCI-H522 lung and in the assay with NCI/ADR-RES ovarian was greater than 100 µM each time. Also, the TGI in the assay with OVCAR-5 ovarian, in the assay on SK-MEL-5 melanoma and in the assay on UACC-257 melanoma was greater than 100 µM throughout.

For `Cc1[nH]c2ccccc2c1C=Nc1ccc(N=Cc2c(C)[nH]c3ccccc23)cc1`, the TGI in the assay with 786-0 renal was 35.7 µM; with BT-549 breast it was greater than 100 µM; in the assay with CAKI-1 renal, greater than 100 µM; with HL-60(TB) leukemia it was 41.8 µM; with KM12 colon, 32.3 µM; in the assay with NCI-H522 lung it was 41.9 µM. For the same molecule, the TGI in the assay with NCI/ADR-RES ovarian is greater than 100 µM; in the assay with OVCAR-5 ovarian, greater than 100 µM; in the assay on SK-MEL-5 melanoma, 93.8 µM; with UACC-257 melanoma, greater than 100 µM.

Regarding `NC(=O)c1ccc2c(c1)S(=O)(=O)c1ccccc1C2=O`, the TGI with 786-0 renal, with BT-549 breast, in the assay with CAKI-1 renal, with HL-60(TB) leukemia, in the assay with KM12 colon and in the assay on NCI-H522 lung was greater than 100 µM in each case. For the same molecule, the TGI in the assay on NCI/ADR-RES ovarian, with OVCAR-5 ovarian, with SK-MEL-5 melanoma and in the assay with UACC-257 melanoma was greater than 100 µM throughout.

As to `COc1ccc2c(c1)N=C1CSC(c3ccccc3Cl)N1C2` (stereo not drawn), the TGI was 31.6 µM in the assay on 786-0 renal; greater than 100 µM in the assay with BT-549 breast; 24.6 µM with CAKI-1 renal; 4.76 µM in the assay on HL-60(TB) leukemia; 18.4 µM in the assay on KM12 colon; 51.4 µM in the assay on NCI-H522 lung. For the same molecule, the TGI in the assay with NCI/ADR-RES ovarian stood at 72.3 µM; in the assay with OVCAR-5 ovarian, 28.2 µM; in the assay with SK-MEL-5 melanoma, 31.4 µM; in the assay with UACC-257 melanoma it was 32.7 µM.

On to `OC1(c2cc3ccccc3s2)CCCCC1`, for which the TGI with 786-0 renal is greater than 100 µM; in the assay on BT-549 breast, greater than 100 µM; in the assay with CAKI-1 renal, greater than 100 µM; in the assay with HL-60(TB) leukemia it was greater than 100 µM; in the assay with KM12 colon, greater than 100 µM; in the assay with NCI-H522 lung, 65.6 µM. For the same molecule, the TGI in the assay with NCI/ADR-RES ovarian, in the assay on OVCAR-5 ovarian, in the assay on SK-MEL-5 melanoma and in the assay on UACC-257 melanoma was greater than 100 µM each time.

Take `N#Cc1c(N2CCCC2)ncn(Cc2ccccc2)c1=O`: the TGI with 786-0 renal, with BT-549 breast, with HL-60(TB) leukemia, in the assay on KM12 colon, in the assay with NCI-H522 lung and in the assay on NCI/ADR-RES ovarian was greater than 100 µM each time. Also, the TGI with OVCAR-5 ovarian, in the assay on SK-MEL-5 melanoma and with UACC-257 melanoma was greater than 100 µM each time.

Turning to `C(=C\c1ccccc1)/C=N/c1nc2cc3sc(/N=C/C=C/c4ccccc4)nc3cc2s1`, the TGI with 786-0 renal, in the assay on BT-549 breast, with CAKI-1 renal, in the assay with HL-60(TB) leukemia, with KM12 colon and in the assay on NCI-H522 lung was greater than 100 µM throughout. Moreover, the TGI with NCI/ADR-RES ovarian, with OVCAR-5 ovarian, in the assay with SK-MEL-5 melanoma and with UACC-257 melanoma was greater than 100 µM throughout.

With `COC(=O)n1c(=O)n(-c2ccccc2)c(=O)n1C(=O)OC`, the TGI in the assay on 786-0 renal, in the assay on BT-549 breast, with CAKI-1 renal, in the assay on HL-60(TB) leukemia, in the assay with KM12 colon and in the assay on NCI-H522 lung was greater than 100 µM each time. Besides, the TGI with NCI/ADR-RES ovarian, in the assay with OVCAR-5 ovarian, with SK-MEL-5 melanoma and in the assay with UACC-257 melanoma was greater than 100 µM throughout.

For the molecule `CCCCc1ccc(Nc2ncc3[nH]cnc3n2)cc1`, the TGI in the assay with 786-0 renal is 54.3 µM; in the assay on BT-549 breast it was 52.8 µM; in the assay on CAKI-1 renal, 36.4 µM; with HL-60(TB) leukemia, greater than 100 µM; in the assay with KM12 colon it was 45 µM; in the assay on NCI-H522 lung it was 55 µM. Moreover, the TGI was 46 µM in the assay with NCI/ADR-RES ovarian, greater than 100 µM with OVCAR-5 ovarian, 31.1 µM in the assay on SK-MEL-5 melanoma and 59 µM in the assay with UACC-257 melanoma.

Take `CC(CO)C1C[C@H](O)[C@@]2(C)CC(=O)C=C(CO)[C@@H]2C1` (stereo partly drawn): the TGI with 786-0 renal, with BT-549 breast, with CAKI-1 renal, with HL-60(TB) leukemia, with KM12 colon and in the assay with NCI/ADR-RES ovarian was greater than 100 µM in each case. The TGI in the assay with OVCAR-5 ovarian, in the assay on SK-MEL-5 melanoma and with UACC-257 melanoma was greater than 100 µM throughout.

For `CNC(=O)c1cc(NC(=O)N(CCC#N)CCN(C(=O)N[C@@H](Cc2ccccc2)C(=O)N[C@@H](CC(C)C)C(=O)NC)c2ccccc2)ccc1OC`, the TGI with 786-0 renal, with BT-549 breast, in the assay on CAKI-1 renal, in the assay on HL-60(TB) leukemia, in the assay on KM12 colon and with NCI/ADR-RES ovarian was greater than 100 µM in each case. The TGI is greater than 100 µM in the assay with OVCAR-5 ovarian, greater than 69.2 µM in the assay on SK-MEL-5 melanoma and 51 µM in the assay on UACC-257 melanoma.

`Cc1ccc(N2CCc3c(C)c(C#N)c4nc5ccccc5n4c32)cc1`: the TGI in the assay with 786-0 renal, with BT-549 breast, in the assay on CAKI-1 renal, in the assay on HL-60(TB) leukemia, in the assay with NCI-H522 lung and with NCI/ADR-RES ovarian was greater than 100 µM each time. Besides, the TGI in the assay on OVCAR-5 ovarian, in the assay with SK-MEL-5 melanoma and with UACC-257 melanoma was greater than 100 µM throughout.

In the case of `Cc1cc(-c2nc3ccccc3s2)ccc1NC(=O)[C@H](C)N`, the TGI stood at 23.7 µM in the assay with 786-0 renal; 31.2 µM in the assay on BT-549 breast; 24 µM in the assay with CAKI-1 renal; 31.1 µM in the assay with KM12 colon; 75.8 µM in the assay on NCI-H522 lung; 38.5 µM with NCI/ADR-RES ovarian. The TGI worked out at 19.1 µM with OVCAR-5 ovarian, 26.1 µM in the assay with SK-MEL-5 melanoma and 33.2 µM in the assay on UACC-257 melanoma.

Consider `O=c1c(C=Nc2ccc([N+](=O)[O-])cc2)c(O)n(-c2ccccc2)c(=O)n1-c1ccccc1`, for which the TGI in the assay on 786-0 renal, in the assay with BT-549 breast, in the assay on CAKI-1 renal, in the assay with KM12 colon, with NCI-H522 lung and with NCI/ADR-RES ovarian was greater than 100 µM each time. For the same molecule, the TGI in the assay with OVCAR-5 ovarian, in the assay on SK-MEL-5 melanoma and in the assay on UACC-257 melanoma was greater than 100 µM throughout.

Consider `O=C1COc2ccc([N+](=O)[O-])cc2C(=O)C1`, for which the TGI in the assay with 786-0 renal, with BT-549 breast, in the assay with CAKI-1 renal, with HL-60(TB) leukemia, in the assay on KM12 colon and with NCI/ADR-RES ovarian was greater than 10 µM each time. Further, the TGI with OVCAR-5 ovarian, in the assay with SK-MEL-5 melanoma and in the assay with UACC-257 melanoma was greater than 10 µM throughout.

Consider `COC(OC)C1OC(CO)C(n2ccc(N)nc2=O)C1O` (stereo not drawn), for which the TGI with 786-0 renal, with BT-549 breast, in the assay with CAKI-1 renal, in the assay with KM12 colon, in the assay with NCI-H522 lung and with NCI/ADR-RES ovarian was greater than 100 µM each time. For the same molecule, the TGI with OVCAR-5 ovarian, in the assay on SK-MEL-5 melanoma and in the assay with UACC-257 melanoma was greater than 100 µM each time.

For `CSc1c(C#N)c(=O)[nH]c2n[nH]c(C)c12`, the TGI in the assay on 786-0 renal, with BT-549 breast, in the assay on CAKI-1 renal, in the assay with HL-60(TB) leukemia, in the assay with KM12 colon and in the assay on NCI/ADR-RES ovarian was greater than 100 µM throughout. Besides, the TGI with OVCAR-5 ovarian, with SK-MEL-5 melanoma and in the assay with UACC-257 melanoma was greater than 100 µM in each case.

Take `CN(NC(=O)CCCl)C1=NCCCCN1`: the TGI with 786-0 renal, in the assay on BT-549 breast, with HL-60(TB) leukemia, with KM12 colon, in the assay with NCI-H522 lung and in the assay on NCI/ADR-RES ovarian was greater than 100 µM each time. The TGI in the assay on OVCAR-5 ovarian, with SK-MEL-5 melanoma and in the assay with UACC-257 melanoma was greater than 100 µM each time.

Take `Cc1c2oc3c(C)ccc(C(=O)NC4C(=O)NC(C(C)O)C(=O)N5CCCC5C(=O)N(C)CC(=O)N(C)C(C(C)C)C(=O)OC4C)c3nc-2c(C(=O)NC2C(=O)NC(C(C)O)C(=O)N3CCCC3C(=O)N(C)CC(=O)N(C)C(C(C)C)C(=O)OC2C)c(N)c1=O` (stereo not drawn) (I: TTP[Sar][NMeV] / II: TTP[Sar][NMeV]; ester I:1-I:C, II:1-II:C; linker I:N-II:N via Actinocin(9to1); configuration not given here): the TGI is 1.03 µM in the assay with BT-549 breast; greater than 100 µM in the assay on CAKI-1 renal; 5.12 µM in the assay with HL-60(TB) leukemia; greater than 30.1 µM in the assay with KM12 colon; 1.14 µM in the assay with NCI-H522 lung; greater than 100 µM in the assay with NCI/ADR-RES ovarian. In addition, the TGI was determined as 44.2 µM in the assay with OVCAR-5 ovarian, 1.74 µM with SK-MEL-5 melanoma and 3.2 µM in the assay on UACC-257 melanoma.
